This note sets out measurements from PubChem BioAssay (NCI).

Test systems include TK-10 renal; A498 renal; U251 CNS; UACC-257 melanoma; HT29 colon; T-47D breast; K-562 leukemia.
Experiment in all cases: DTP human tumour cell line panel, 48 h

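96-well plates; 48 h exposure; 5 concentrations. Endpoints by linear interpolation between flanking doses. Not reached: highest tested concentration assigned. GI50 = concentration required for 50% inhibition of growth. TGI: total growth inhibition.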 A value given as a limit tells only on which side of the number the result lay.

As for `Cc1c(-c2nc(N)nc(C3CC3)c2C)nc(N)nc1C1CC1`, the TGI with TK-10 renal, in the test on A498 renal, with U251 CNS, with UACC-257 melanoma, in the test on HT29 colon and in the test on T-47D breast was above 100 µM throughout. The same molecule returned a TGI in the test on K-562 leukemia above 100 µM.
`FC(F)(F)c1ccc2c(Nc3cccc(C4CC(c5ccccc5)=NN4c4ccc(Cl)cc4)c3)ccnc2c1` (configuration not stated): the GI50 with TK-10 renal was 4.76 µM; in the test on A498 renal it was 9.9 µM; with U251 CNS, 3.24 µM; in the test with UACC-257 melanoma, 11.2 µM; in the test with HT29 colon, 3.3 µM; with T-47D breast, 5.93 µM. Besides, the GI50 in the test on K-562 leukemia is 3.31 µM. Also, the total growth inhibition concentration (TGI) in the test with TK-10 renal was 21.4 µM; in the test with A498 renal, 45.6 µM; with U251 CNS, 14.4 µM; in the test on UACC-257 melanoma it was 32.6 µM; with HT29 colon it was 12.5 µM; in the test on T-47D breast, 37.4 µM. This molecule yielded a concentration for total growth inhibition (TGI) in the test on K-562 leukemia of 14.3 µM.
As for `CS(=O)(=O)Nc1ccc(-c2ccc3c(NC(=O)C4CC4)n[nH]c3c2)cc1`, the GI50 in the test with TK-10 renal is above 25 µM; in the test with A498 renal, above 25 µM; in the test on U251 CNS it was above 25 µM; with UACC-257 melanoma, above 25 µM; in the test with HT29 colon, above 23.6 µM; in the test with T-47D breast, above 13.2 µM. In the test with K-562 leukemia, the GI50 is 13.3 µM. Besides, the TGI with TK-10 renal, in the test on A498 renal, with U251 CNS, in the test with UACC-257 melanoma, in the test on HT29 colon and in the test on T-47D breast was above 25 µM throughout. For the same molecule, in the test on K-562 leukemia, the TGI was above 25 µM.
Consider `COC(=O)NC/C=C\c1nc(CC/C=C\C(=O)OC2CC3CC(=O)O[C@@H](/C=C/CC(C)C)C[C@@H]4CCC(C)C(C[C@@H](OC)CC(C2)O3)O4)co1` (some centres not stated), for which the concentration for 50% growth inhibition (GI50) in the test on U251 CNS is below 0.01 µM; with UACC-257 melanoma it was above 100 µM; in the test with HT29 colon, 7.63 µM; with T-47D breast it was 45.7 µM; in the test on K-562 leukemia it was below 0.01 µM. In addition, the total growth inhibition concentration (TGI) in the test with U251 CNS is 72.4 µM; in the test with UACC-257 melanoma, above 100 µM; in the test on HT29 colon, above 100 µM; in the test with T-47D breast, above 100 µM; with K-562 leukemia it was 12.2 µM.
Turning to `CCCS(=O)(=O)c1nc(NC2CC2)cc(-c2ccc3c(ccn3C3CC(C)(C)NC(C)(C)C3)c2)n1`, the GI50 in the test with TK-10 renal is 1.52 µM; with A498 renal, 1.81 µM; in the test on HT29 colon, 1.81 µM; in the test on K-562 leukemia, 0.777 µM. The concentration for total growth inhibition (TGI) in the test on TK-10 renal is 2.98 µM; in the test on A498 renal it was 3.37 µM; in the test with HT29 colon, 3.38 µM; in the test with K-562 leukemia, 2.48 µM.
Regarding `C=CC(=O)N1CCN(c2ncnc3c(F)c(-c4c(O)cccc4F)c(Cl)cc23)CC1`, the GI50 was 16.1 µM in the test with TK-10 renal; 5.45 µM with A498 renal; 13.2 µM in the test with U251 CNS; 14.4 µM in the test with UACC-257 melanoma; 25 µM in the test with HT29 colon; 10.2 µM with T-47D breast. For the same molecule, the GI50 in the test with K-562 leukemia is 21.2 µM. Besides, the total growth inhibition concentration (TGI) was 43.4 µM in the test on TK-10 renal; 19.1 µM in the test with A498 renal; 46.8 µM with U251 CNS; 30.4 µM with UACC-257 melanoma; 77.7 µM in the test with HT29 colon; 42.9 µM in the test on T-47D breast. Also, the TGI in the test with K-562 leukemia was above 100 µM.
As for `CCCCCC(C(O)C#N)C(O)(C(F)(F)F)C(F)(F)F` (configuration not stated), the concentration for total growth inhibition (TGI) with TK-10 renal, in the test on U251 CNS, with UACC-257 melanoma, in the test with HT29 colon, in the test with T-47D breast and in the test on K-562 leukemia was above 10 µM throughout.
Take `Clc1ccc(OCc2nnc3n2N=C(c2ccc(Cl)cc2Cl)CS3)c(Cl)c1`: the GI50 was 25.1 µM in the test with TK-10 renal; 18.7 µM with U251 CNS; 24 µM in the test on UACC-257 melanoma; 24.4 µM with HT29 colon; 33 µM in the test with T-47D breast; 33.4 µM with K-562 leukemia. Besides, the TGI is above 100 µM with TK-10 renal; 46.8 µM in the test on U251 CNS; 52 µM with UACC-257 melanoma; 83.3 µM in the test on HT29 colon; above 100 µM in the test with T-47D breast; above 100 µM in the test with K-562 leukemia.
For `C=C1C(=O)O[C@H]2[C@H]1CC/C(COC(=O)c1cc3cc(OC)ccc3[nH]1)=C\CC[C@@]1(C)O[C@@H]21`, the GI50 was 1.28 µM in the test with TK-10 renal; 1.63 µM in the test on A498 renal; 1.6 µM in the test with U251 CNS; 1.61 µM with UACC-257 melanoma; 0.351 µM in the test on HT29 colon; 0.562 µM in the test with K-562 leukemia. The concentration for total growth inhibition (TGI) was 2.54 µM in the test with TK-10 renal; 3.04 µM with A498 renal; 2.95 µM in the test with U251 CNS; 3 µM in the test on UACC-257 melanoma; 1.47 µM in the test on HT29 colon; 10.8 µM in the test on K-562 leukemia.
With `CC1=C(C)C(=O)O[C@@H]([C@](C)(O)[C@]2(O)CC[C@@]3(O)[C@@H]4C[C@H]5O[C@]56CC=CC(=O)[C@]6(C)[C@H]4CC[C@]23C)C1`, the GI50 with TK-10 renal is 0.0482 µM; with A498 renal it was 0.218 µM; in the test on U251 CNS it was 0.483 µM; in the test on UACC-257 melanoma, 0.172 µM; in the test with HT29 colon, 0.066 µM; in the test on T-47D breast it was 0.111 µM. The GI50 in the test with K-562 leukemia is 0.0907 µM. Moreover, the TGI with TK-10 renal was found to be 0.995 µM; with A498 renal, 0.784 µM; in the test with U251 CNS, 2.23 µM; in the test with UACC-257 melanoma, 2.33 µM; in the test on HT29 colon, 1.47 µM; with T-47D breast it was 1.63 µM. The molecule further registered a concentration for total growth inhibition (TGI) in the test with K-562 leukemia above 27.8 µM.
Regarding `CN(C)c1nc(-c2cccs2)n2nc(-c3ccc(Cl)cc3)cc2n1`, in the test with K-562 leukemia, the GI50 was above 100 µM and the TGI was above 100 µM.
On to `CCn1c(-c2nonc2N)nc2ccc(F)cc21`, for which the GI50 is above 25 µM with TK-10 renal; 13.6 µM in the test with A498 renal; above 25 µM in the test with U251 CNS; above 25 µM in the test on UACC-257 melanoma; above 25 µM with HT29 colon; above 25 µM in the test on T-47D breast. Besides, the GI50 in the test with K-562 leukemia was above 25 µM. Also, the total growth inhibition concentration (TGI) in the test on TK-10 renal, in the test with A498 renal, in the test on U251 CNS, in the test with UACC-257 melanoma, in the test on HT29 colon and in the test on T-47D breast was above 25 µM throughout. In addition, in the test with K-562 leukemia, the TGI was above 25 µM.
